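These data come from cells grown in 96-well plates and exposed to compound for 48 hours at five concentrations. The concentration for 50% growth inhibition is given as GI50. TGI marks complete inhibition of growth.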 Some results are limits rather than exact numbers.

The first assay relates to HCT-15 colon. The experiment in a line: NCI-60 cell line screen, 48 h.
Consider `CC(=O)Oc1c(C)c(-c2ccccc2)c(C)c(-c2ccccc2)c1C(=S)c1ccccc1`, for which the TGI was above 100 µM.
As for `N#CCC(=O)N/N=C1/C(=O)N(c2ccc(Cl)cc2)C(=O)C(=O)C1c1nc2ccccc2s1` (stereo unspecified), the TGI was above 100 µM.
Still for that read-out and setting: then `CCCCCCCCCCCC(=O)OCCOCCOCCOCCOCCOC(=O)CCCCCCCCCCC`, with above 100 µM; and `COc1ccc(C=O)cc1O[Si](C)(C)C(C)(C)C`, with above 100 µM.
The compound `CC1(O)C(C)(O)C2(C)O[Te]3(OC12C)OC1(C)C(C)(O)C(C)(O)C1(C)O3` (stereo unspecified) had a TGI of 34.4 µM.
The compound `O=C1COc2cc(NC(=S)Nc3ccccc3)ccc2N1` displayed a TGI above 100 µM.
As to `CCCCCCCCn1ccc2cc(NC(=O)Cn3cc(CN4CCCCCC4)nn3)ccc21`, the GI50 was 1.6 µM and the TGI came out at 3.17 µM.
With `O=S(=O)(C1=CC(S(=O)(=O)c2ccccc2)CN(Cc2ccccc2)C1c1cccc2ccccc12)c1ccccc1` (stereo unspecified), the TGI was above 69 µM.
In turn, `O=C1C=C(Nc2ccccc2C(=O)CC(=O)C(=O)Nc2cccc([N+](=O)[O-])c2)c2ccccc2C1=O` gave a TGI above 100 µM.
Turning to `O=C(Nc1ccc(Cl)cc1)C1C(=O)C(=O)N(c2ccc(Cl)cc2)C1=O` (stereo unspecified), the TGI is above 100 µM.
Take `CCC[CH2][Sn]([CH2]CCC)([O]C(=O)CN)[O]C(=O)CN`: the GI50 is 26.9 µM and the TGI is 63.6 µM.
The compound `O=C(Nc1ccc(C(F)(F)F)cc1[N+](=O)[O-])C(=O)C1NC(=S)NC1=O` (stereo unspecified) yielded a TGI above 100 µM.
`COc1cc(NCC(C#N)C#N)ccc1N=Nc1ccc(Cl)cc1` gave a TGI of 47.4 µM.
Still for that read-out and setting: the result for `CC(=O)c1ccc(NC(=O)/C(CC(=O)c2sc(-c3cccnc3)nc2C)=N/NC(N)=O)cc1` reads above 100 µM.
The same measure, in the same setting: then `Cc1ccc(S(=O)(=O)OC2CC=CC2)cc1`, with above 100 µM.
Still for that read-out and setting: then `C=CC[P@]1(=O)O[C@H](c2ccccc2)[C@H](C)N1C`, with above 100 µM; and `O=C(Nc1cccc(O)c1)C(=O)C1C(=O)NC(=S)NC1=O`, with above 100 µM.
The compound `O=C1N/C(=C\[N+](=O)[O-])c2ccccc21` returned a TGI above 100 µM.
Compound `COC(=O)C(=O)CC(=O)CCn1[nH]c(=O)c(Cl)c(Cl)c1=O` registered a TGI above 100 µM.
Still for that read-out and setting: then `OCC12C=CC(C1)c1ccccc12` (stereo unspecified), with above 100 µM.
The same measure, in the same setting: the result for `COc1ccc(NC(=O)CC/C(CC(=O)c2ccco2)=N/NC(=O)C(N)=O)cc1` reads above 100 µM; that for `NC(CCCC(N)P(=O)(O)O)P(=O)(O)O` (stereo unspecified), above 100 µM; that for `CC(=O)C1C(c2ccccc2)C2(C)OC(=O)C(C#N)C12C` (stereo unspecified), above 100 µM.
Still for that read-out and setting: then `CC(=O)Oc1cc2c(cc1OC(C)=O)C1(C)CCC2(C)c2cc(OC(C)=O)c(OC(C)=O)cc21`, with 85.3 µM.

The subject of another assay is TK-10 renal. In words: NCI-60 cell line screen, 48 h.
Consider `C[C@]12CCc3sc(Nc4ccc(OC(F)(F)F)cc4)nc3C1=CC[C@@H]1[C@@H]2CC[C@]2(C)C(=O)CC[C@@H]12`, for which the GI50 is 4.82 µM and the TGI amounted to 32 µM.
`CC(=O)Oc1c(C)c(-c2ccccc2)c(C)c(-c2ccccc2)c1C(=S)c1ccccc1` displayed a TGI above 100 µM.
Still for that read-out and setting: then `N#CCC(=O)N/N=C1/C(=O)N(c2ccc(Cl)cc2)C(=O)C(=O)C1c1nc2ccccc2s1` (stereo unspecified), with above 100 µM.
In turn, `CCCCCCCCCCCC(=O)OCCOCCOCCOCCOCCOC(=O)CCCCCCCCCCC` registered a TGI above 100 µM.
On the same count and under the same terms, then `COc1ccc(C=O)cc1O[Si](C)(C)C(C)(C)C`, with above 100 µM; and `CC1(O)C(C)(O)C2(C)O[Te]3(OC12C)OC1(C)C(C)(O)C(C)(O)C1(C)O3` (stereo unspecified), with above 100 µM; and `O=C1COc2cc(NC(=S)Nc3ccccc3)ccc2N1`, with above 100 µM.
With `CCCCCCCCn1ccc2cc(NC(=O)Cn3cc(CN4CCCCCC4)nn3)ccc21`, the GI50 is 1.63 µM and the TGI was 3.06 µM.
The compound `O=S(=O)(C1=CC(S(=O)(=O)c2ccccc2)CN(Cc2ccccc2)C1c1cccc2ccccc12)c1ccccc1` (stereo unspecified) had a TGI above 69 µM.
On the same count and under the same terms, then `O=C1C=C(Nc2ccccc2C(=O)CC(=O)C(=O)Nc2cccc([N+](=O)[O-])c2)c2ccccc2C1=O`, with above 100 µM; and `O=C(Nc1ccc(Cl)cc1)C1C(=O)C(=O)N(c2ccc(Cl)cc2)C1=O` (stereo unspecified), with above 100 µM.
Regarding `CCC[CH2][Sn]([CH2]CCC)([O]C(=O)CN)[O]C(=O)CN`, the GI50 is 38.4 µM and the TGI is above 100 µM.
Take `O=C(Nc1ccc(C(F)(F)F)cc1[N+](=O)[O-])C(=O)C1NC(=S)NC1=O` (stereo unspecified): the TGI was above 100 µM.
`COc1cc(NCC(C#N)C#N)ccc1N=Nc1ccc(Cl)cc1` had a TGI of 73 µM.
On the same count and under the same terms, then `Cc1ccc(S(=O)(=O)OC2CC=CC2)cc1`, with above 100 µM; and `C=CC[P@]1(=O)O[C@H](c2ccccc2)[C@H](C)N1C`, with above 100 µM; and `O=C1N/C(=C\[N+](=O)[O-])c2ccccc21`, with above 100 µM.
Same read-out and setting: then `COC(=O)C(=O)CC(=O)CCn1[nH]c(=O)c(Cl)c(Cl)c1=O`, with above 100 µM; and `OCC12C=CC(C1)c1ccccc12` (stereo unspecified), with above 100 µM.
The compound `COc1ccc(NC(=O)CC/C(CC(=O)c2ccco2)=N/NC(=O)C(N)=O)cc1` returned a TGI above 100 µM.
On to `NC(CCCC(N)P(=O)(O)O)P(=O)(O)O` (stereo unspecified), for which the TGI was above 100 µM.
As to `CCOC(=O)[CH-]C(=O)C12CC3CC(CC(C3)C1)C2.CCOC(=O)[CH-]C(=O)C12CC3CC(CC(C3)C1)C2.CC[O-].CC[O-].[Ti+4]`, the GI50 was above 100 µM and the TGI was above 100 µM.
`CC(=O)C1C(c2ccccc2)C2(C)OC(=O)C(C#N)C12C` (stereo unspecified): the TGI was above 100 µM.
With `C[C@]12CC=CC(=O)[C@@]1(C)CCC(=O)C2`, the TGI is above 100 µM.
The same measure, in the same setting: then `CC(=O)Oc1cc2c(cc1OC(C)=O)C1(C)CCC2(C)c2cc(OC(C)=O)c(OC(C)=O)cc21`, with 76.6 µM.

The test system of another assay is SN12C renal. In words: NCI-60 cell line screen, 48 h.
Regarding `C[C@]12CCc3sc(Nc4ccc(OC(F)(F)F)cc4)nc3C1=CC[C@@H]1[C@@H]2CC[C@]2(C)C(=O)CC[C@@H]12`, the GI50 was 3.44 µM and the TGI came out at 16.1 µM.
As for `CCC1=CCN(c2cc(C)ccn2)OC1c1ccc(OC)cc1` (stereo unspecified), the TGI stood at 64.6 µM.
The same measure, in the same setting: the result for `CC(=O)Oc1c(C)c(-c2ccccc2)c(C)c(-c2ccccc2)c1C(=S)c1ccccc1` reads above 100 µM; that for `N#CCC(=O)N/N=C1/C(=O)N(c2ccc(Cl)cc2)C(=O)C(=O)C1c1nc2ccccc2s1` (stereo unspecified), above 100 µM.
The same measure, in the same setting: the result for `CCCCCCCCCCCC(=O)OCCOCCOCCOCCOCCOC(=O)CCCCCCCCCCC` reads above 100 µM; that for `COc1ccc(C=O)cc1O[Si](C)(C)C(C)(C)C`, above 100 µM; that for `CC1(O)C(C)(O)C2(C)O[Te]3(OC12C)OC1(C)C(C)(O)C(C)(O)C1(C)O3` (stereo unspecified), above 100 µM.
Same read-out and setting: then `O=C1COc2cc(NC(=S)Nc3ccccc3)ccc2N1`, with above 100 µM.
Take `CCCCCCCCn1ccc2cc(NC(=O)Cn3cc(CN4CCCCCC4)nn3)ccc21`: the GI50 is 1.67 µM and the TGI came to 3.26 µM.

Source of the values: PubChem BioAssay (NCI).
